From PMC8879702, “Discovery of Small Molecule Activators of Chemokine Receptor CXCR4 That Improve Diabetic Wound Healing” (International Journal of Molecular Sciences, 2022)

Legend:
Type in all cases: cell-based
[1] = system: miR-15b; experiment: miR-15b expression in human diabetic fibroblasts (real time qPCR)
Description: (§1) An additional secondary screen was performed to further validate the activity of UCUF-728 as a selective CXCR4 receptor modulator. Human diabetic and non-diabetic fibroblasts were cultured with increasing concentrations of the compound. The cells were incubated for 24 h and then total cellular RNA was isolated to examine the ability of the compound to correct the abnormal expression of miR-15b, and miR-29a. We have shown that human diabetic skin has an increased miR-15b expression at the baseline compared to non-diabetic skin [7].
(§2) CEM-CCRF cells (ATCC CCL-119) were cultured in growth media consisting of RPMI 1640 (Corning; Corning NY, USA) supplemented with 10% Fetal Bovine Serum (Corning; Corning, NY, USA), and 100 IU penicillin, […] streptomycin sulfate (Corning; Corning, NY, USA). Cells were maintained in suspension and subcultured twice weekly to maintain cell densities between 0.8 × 10^6 cells/mL and 2.5 × 10^6 cells/mL to maintain exponential growth phase. […]
(§3) Total RNA was extracted with TRIzol reagent (Invitrogen, Carlsbad, CA, USA) according to the manufacturer’s established protocol. […] Quantitative PCR was performed on a BIO-RAD CFX96 according to the manufacturer’s instructions. Quantitative values of genes of interest are normalized based on U6. […]

[2] = target: T1, CXCR4 receptor (Homo sapiens, UniProt P61073); experiment: 384 w β-arrestin recruitment assay (Tango CXCR4-bla U2OS cells, PeproTech SDF-1α); parameters: host or cells: Tango CXCR4-bla U2OS cells
Description: Tango™ CXCR4-bla U2OS Cells were resuspended in assay media consisting of DMEM (Corning; Corning, NY, USA) supplemented with 1% dialyzed Fetal bovine serum, 0.1 mM MEM Non-essential amino acids solution, 25 mM HEPES solution (Corning; Corning, NY, USA), 1 mM Sodium Pyruvate and 100 IU penicillin, […] streptomycin sulfate (Corning; Corning, NY, USA) at a density of 3.0 × 10^5 cells/mL. Cells suspension was dispensed at 30 μL per well into assay plate and incubated overnight in a cell culture incubator at 37 °C with 5% CO2. Following overnight incubation, LiveBlazer FRET B/G Loading Kit working reagent was prepared according to supplier guidelines and 6 μL of solution was dispensed into each well. Assay plate was covered and incubated in a dark place for two hours and Fluorescence Intensity was measured using the BMG LABTECH CLARIOstar Plus (BMG LABTECH Inc., Cary, NC, USA) according to the LiveBlazer FRET B/G Loading Kit excitation and emission measurement guidelines.

[3] = target: T1, CXCR4 receptor; experiment: cAMP signaling assay, forskolin-induced, PathHunter CHO-K1 CXCR4 cells; conditions: CHO-K1 CXCR4 overexpressed cells
Description: The CXCR4 receptor is a G-protein coupled receptor (GPCR) coupled to the Gi class, whose primary role is inhibition of adenylate cyclase. We tested the ability of UCUF-728 to induce a Gi-mediated cAMP-inhibitory cellular response. […] (Figure 2B).
Forskolin at final concentration of 0.5 mM was added to all wells using the TECAN dispenser. […] of PathHunter CHO-K1 CXCR4 cells (DiscoverX, Fremont, CA, USA) were added to compounds at 3000 cells/well, centrifuged at 1000 rpm for 30 s and incubated for 30 min at room temperature. DMSO (Sigma Aldrich, St. Louis, MO, USA) was normalized to 0.5%. […] of 4X Eu-cAMP tracer working solution were added to all wells, followed by addition of 5 μL of 4X Ulight-anti-cAMP working solution to all wells. Plates were centrifuged at 1000 rpm for 1 min and incubated for 1 h at room temperature, then read using CLARIOstar Plus (BMG LABTECH Inc., Cary, NC, USA) Lance CAMP protocol.

[4] = system: miR-29a; experiment: miR-29a expression in human diabetic fibroblasts (real time qPCR); conditions: 24 h
Description: as §1, §2, §3

T1 sequence (P61073 whole entry): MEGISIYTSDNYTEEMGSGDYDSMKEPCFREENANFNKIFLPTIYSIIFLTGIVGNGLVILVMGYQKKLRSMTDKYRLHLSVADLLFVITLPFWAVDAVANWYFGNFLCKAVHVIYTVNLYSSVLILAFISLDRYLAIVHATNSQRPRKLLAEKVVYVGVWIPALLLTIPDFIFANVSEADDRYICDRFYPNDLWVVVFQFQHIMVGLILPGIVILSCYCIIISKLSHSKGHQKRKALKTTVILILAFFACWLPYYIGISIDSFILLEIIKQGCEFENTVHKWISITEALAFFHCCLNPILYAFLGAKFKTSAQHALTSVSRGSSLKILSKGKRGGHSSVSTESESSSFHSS

EC50 [2]: 500 nM | Emax ([2]; U2OS): 30%
SMILES: COc1ccc(OC)c(NS(=O)(=O)c2ccc(-c3cnc(C4CC4)o3)cc2)c1 [Compound 19]
lowest concentration with potent suppression of miR-15b expression [1]: 0.1 µM | miR-15b expression ([1]; 24 h): decreased the expression of miR-15b | inhibition of forskolin-induced adenylate cyclase (cAMP signaling) [3]: did not inhibit forskolin-induced adenylate cyclase | miR-29a expression [4]: significant decrease in the miR-29a expression level
